test system: HBV; experiment: HBV inhibition assay in HepAD38 cells (extracellular HBV DNA by direct qPCR); format: cell-based, HBV genotype D subtype ayw; details: 96 hours, read-out: HBV inh EC50
Description: HepAD38 cell line (Ladner et al., Antimicrob Agents Chemother, 1997, 41, 1715-20) was used for HBV inhibition assays. HepAD38 is a subclone, derived from hepatoblastoma cell line HepG2 (ATCC® Number: HB-8065), that expresses HBV genome (genotype D subtype ayw) under the transcriptional control of a tetracycline-responsive promoter in a TET-OFF system: addition of doxycycline, an antibiotic belonging to the class of tetracycline, suppresses HBV replication, while its removal switches on the process allowing HBV viral particles release in the cell supernatant. HepAD38 cell line is maintained in DMEM/F12, supplemented with 10% of fetal bovine serum, 1% of glutamine, 1% of penicillin/streptomycin, 0.4 mg/ml G418 and 0.3 ug/ml tetracycline. For the HBV inhibition assay, doxycycline-free medium is used in order to allow virion production.
HBV inhibition activity in vitro was performed in 96 multiwell plates. During the initial (primary) screening, compounds were first tested in triplicates at concentrations of 0.02 μM, 0.1 μM, 0.5 μM and 1 μM. For selected compounds, an 8-point dose-response curve was obtained using 1:2 serial dilutions (starting from 0.01 μM, 0.1 μM, 0.4 μM or 5 μM, depending on the degree of inhibition observed during the primary screening). From the dose-response curves, half maximal effective concentration (EC50) could be calculated (see also below).
In more detail, compounds—typically dissolved in DMSO stock solutions—were diluted to 2× the final desired concentration in 100 μl of the above medium (without doxycycline) and plated in three replicates in the 96-well plates.
Simultaneously, HepAD38 cells—extensively pre-washed in doxycycline-free medium in order to induce HBV production—were suspended at 2*10^4 cells in 100 μl of doxycycline-free medium and added to each well of the plate, to yield a final assay volume of 200 μl.
DMSO, used for stock solutions and compounds dilutions, was always present in the assays at a final concentration of 0.5%.
Plates were then incubated 96 hours at 37° C. and then subjected to cell viability assays and extracellular HBV quantification, in order to evaluate both the cytotoxic potential and the antiviral activity of compounds.
Cytotoxicity was assessed by a commercial fluorescence assay that measures the metabolic activity of cells, directly related to cell viability (Cell Titer Blue, Promega). For each compound, cytotoxicity was evaluated at the same concentration employed to evaluate its anti-HBV activity. Anti-HBV activity was evaluated by quantification of extracellular HBV DNA with direct qPCR. In particular, supernatant was collected and centrifuged for cell debris clarification, viral DNA was extracted from virions by addition of lysis buffer (1 mM 1,4-dithiothreitol, 0.2% sodium dodecyl sulphate) and incubated at 95° C. for 10 min. Samples were then diluted 1:40 and real time PCR amplification was performed with SYBR green assay (Power SYBR™ Green PCR Master Mix-Thermo Fisher Scientific) and specific HBV primer (HBV-DF:5′-[…]-3′ (SEQ ID No. 1), HBV-DR:5′-[…]-3′ (SEQ ID No. 2)).
Antiviral activity data for each compound are reported as EC50 value (see Table 1 legend). Excel and Graphpad Prism programs are typically used for data elaboration and EC50 calculation.

| SMILES | EC50 |
| --- | --- |
| Cc1cc(NC(=O)c2c3c(cn2C)S(=O)(=O)NC2CCN(C(=O)C(=O)NCC(F)(F)F)CC2CO3)ccc1F (racemic) [Example E73, Cis-N-(4-fluoro-3-methylphenyl)-2-methyl-8-(2-oxo-2-((2,2,2-trifluoroethyl)amino)acetyl)-5,5a,6,7,8,9,9a,10-octahydro-2H-pyrido[4,3-f]pyrrolo[3,4-b][1,4,5]oxathiazocine-1-carboxamide 4,4-dioxide] | < 500 nM |
| Cc1cc(NC(=O)c2c3c(cn2C)S(=O)(=O)NC2CN(C(=O)C(=O)N[C@H](C)C(F)(F)F)CCC2CO3)ccc1F (mixture of isomers) [Example E66, Trans-N-(4-fluoro-3-methylphenyl)-2-methyl-7-(2-oxo-2-(((R)-1,1,1-trifluoropropan-2-yl)amino)acetyl)-5,5a,6,7,8,9,9a,10-octahydro-2H-pyrido[3,4-f]pyrrolo[3,4-b][1,4,5]oxathiazocine-1-carboxamide 4,4-dioxide] | < 500 nM |
| Cc1cc(NC(=O)c2c3c(cn2C)S(=O)(=O)NC2CN(C(=O)C(=O)NC4CC4)CCC2CO3)ccc1F (racemic) [Example E67, Trans-7-(2-(cyclopropylamino)-2-oxoacetyl)-N-(4-fluoro-3-methylphenyl)-2-methyl-5,5a,6,7,8,9,9a,10-octahydro-2H-pyrido[3,4-f]pyrrolo[3,4-b][1,4,5]oxathiazocine-1-carboxamide 4,4-dioxide] | < 500 nM |
| Cc1cc(NC(=O)c2c3c(cn2C)S(=O)(=O)NC2CN(C(=O)C(=O)NC(C)(C)C(F)(F)F)CCC2CO3)ccc1F (racemic) [Example E69, Trans-N-(4-fluoro-3-methylphenyl)-2-methyl-7-(2-oxo-2-((1,1,1-trifluoro-2-methylpropan-2-yl)amino)acetyl)-5,5a,6,7,8,9,9a,10-octahydro-2H-pyrido[3,4-f]pyrrolo[3,4-b][1,4,5]oxathiazocine-1-carboxamide 4,4-dioxide] | < 500 nM |
| Cc1cc(NC(=O)c2c3c(cn2C)S(=O)(=O)NC2CN(C(=O)C(=O)NCC(F)(F)F)CCC2CO3)ccc1F (racemic) [Example E68, Trans-N-(4-fluoro-3-methylphenyl)-2-methyl-7-(2-oxo-2-((2,2,2-trifluoroethyl)amino)acetyl)-5,5a,6,7,8,9,9a,10-octahydro-2H-pyrido[3,4-f]pyrrolo[3,4-b][1,4,5]oxathiazocine-1-carboxamide 4,4-dioxide] | < 500 nM |

same assay, conditions: Hepatitis B virus, 96 hours, read-out: HBV inh EC50

| SMILES | EC50 |
| --- | --- |
| Cc1cc(NC(=O)c2c3c(cn2C)S(=O)(=O)NC2CCN(C(=O)C(=O)NC(C)(C)C(F)(F)F)CC2CO3)ccc1F (racemic) [Example E58, Trans-N-(4-fluoro-3-methylphenyl)-2-methyl-8-(2-oxo-2-((1,1,1-trifluoro-2-methylpropan-2-yl)amino)acetyl)-5,5a,6,7,8,9,9a,10-octahydro-2H-pyrido[4,3-f]pyrrolo[3,4-b][1,4,5]oxathiazocine-1-carboxamide 4,4-dioxide] | < 500 nM |
| Cc1cc(NC(=O)c2c3c(c(C)n2C)S(=O)(=O)N[C@H]2CN(C(=O)C(=O)N[C@H](C)C(F)(F)F)C[C@H]2CO3)ccc1F [Example E53, (3aR,10aR)—N-(4-fluoro-3-methylphenyl)-6,7-dimethyl-2-(2-oxo-2-(((R)-1,1,1-trifluoropropan-2-yl)amino)acetyl)-2,3,3a,4,10,10a-hexahydro-1H,7H-dipyrrolo[3,4-b:3′,4′-f][1,4,5]oxathiazocine-8-carboxamide 5,5-dioxide] | < 500 nM |
| Cc1cc(NC(=O)c2c3c(cn2C)S(=O)(=O)NC2CN(C(=O)C(=O)NC(C)(C)C(F)(F)F)CCC2CO3)ccc1F (racemic) [Example E62, Cis-N-(4-fluoro-3-methylphenyl)-2-methyl-7-(2-oxo-2-((1,1,1-trifluoro-2-methylpropan-2-yl)amino)acetyl)-5,5a,6,7,8,9,9a,10-octahydro-2H-pyrido[3,4-f]pyrrolo[3,4-b][1,4,5]oxathiazocine-1-carboxamide 4,4-dioxide] | < 500 nM |

Reference: patent US12465590B2, “Oxalamido-substituted tricyclic inhibitors of hepatitis b virus” (priority 2019, dated 2025)
